Measurements from patent US10201527B2, “Benzimidazole derivatives: preparation and pharmaceutical applications” (MEI PHARMA, INC., priority 2003, dated 2019).

Columns and labels:
[1] = test system: acetylated histone 3 [AcH3(lys9/14)] in Colo205 cells; test: Histone H3 acetylation assay, ELISA approach; assay type: cell-based; settings: Homo sapiens, COLO 205, read-out: EC50, concentration effective for induction of acetylation of histone 3 ([AcH3(lys9/14)]) signal by 50%, 24 h treatment
Protocol: Histone H3 Acetylation Assay—ELISA Approach
An Enzyme Linked Immunosorbent Assay (ELISA) can be applied to detect and quantify the acetylated histone3 (AcH3) in the protein lysate obtained from cancer cell lines treated with the HDAC inhibitors.
The ELISA assay was developed to detect the level of AcH3 from the Colo205 colon cancer cell line treated with 10 μM HDAC inhibitory compounds. The protein lysates from untreated and treated Colo205 were obtained as previously described. The concentration of protein from lysed cells was determined using the BCA method (Sigma-Aldrich Pte Ltd).
The detection antibody used in this ELISA was donkey anti rabbit conjugated with peroxidase.
Colo205 cells were subsequently treated with HDAC inhibitors at different doses (in duplicates, 9 doses treatment, 4-fold dilutions from 100 μM). After treatment for 24 h, cells were lysed and the protein concentration was determined.
The ELISA plate (immulon 2HB plate, Biolaboratories Pte Ltd) was coated with 4 μg/ml of mouse monoclonal antibody against H3 at 4° C. overnight. […] The absorbance was measured at OD450 nm using Spectromax reader (Molecular Devices Corporation, Sunnyvale, Calif.).
The standard curve was drawn and the concentration of AcH3 [(Lys9/14), μg/ml] in a sample was determined using the Softmax software in Spectromax. The amount of AcH3 in a sample was calculated based on the following formula; […]

HDAC3 = HDAC3 (Homo sapiens (Human), UniProt O15379); test: In vitro HDAC assay, HDAC3; assay type: biochemical; settings: Free base
Chain of HDAC3 (O15379 whole entry): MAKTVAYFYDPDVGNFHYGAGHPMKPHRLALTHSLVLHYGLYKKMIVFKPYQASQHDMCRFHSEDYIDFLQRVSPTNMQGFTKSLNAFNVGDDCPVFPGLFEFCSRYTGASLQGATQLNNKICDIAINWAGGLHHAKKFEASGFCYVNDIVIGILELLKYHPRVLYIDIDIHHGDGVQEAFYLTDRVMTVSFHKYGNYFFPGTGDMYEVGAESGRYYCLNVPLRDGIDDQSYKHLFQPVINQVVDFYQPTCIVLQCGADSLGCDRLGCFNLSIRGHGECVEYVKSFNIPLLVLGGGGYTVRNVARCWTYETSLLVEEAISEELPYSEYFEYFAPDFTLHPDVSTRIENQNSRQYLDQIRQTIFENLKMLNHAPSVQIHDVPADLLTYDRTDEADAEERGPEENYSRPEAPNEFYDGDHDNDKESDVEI
Protocol: In Vitro HDAC Assay for Determination of IC50 Values
The assay has been carried out in 96 well format and the BIOMOL fluorescent-based HDAC activity assay has been applied. […] Flur de lys Developer was added and the reaction was incubated for 10 min. Briefly, deacetylation of the substrate sensitizes it to the developer, which then generates a fluorophore (symbol). The fluorophore is excited with 360 nm light and the emitted light (460 nm) is detected on a fluorometric plate reader (Tecan Ultra Microplate detection system, Tecan Group Ltd.).
The analytical software, Prism 3.0 has been used to generate IC50 from a series of data.

Colo205 cells = test: Cell-based proliferation assay (cyquant), Colo205; settings: Homo sapiens, 96 h treatment;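 also: Colo205 human colon cancer cells exposed to compounds over a concentration range for 96 h, growth read by CyQUANT proliferation assay, GI50 taken from fitted dose-response curves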
Protocol: A549 and Colo205 cells were seeded in 96-wells plate at 2000 and 5000 cells per well respectively. […] The plates were incubated at 37° C., 5% CO2, for 24 h. Cells were treated with compounds at various concentration for 96 h. Cell growth was then monitored using cyquant cell proliferation assay (Invitrogen Pte Ltd). Dose response curves were plotted to determine GI50 values for the compounds using XL-fit.

MDA-MB435 cells = test: Cell-based proliferation assay (cyquant), MDA-MB435; settings: Homo sapiens, MDA-MB-435; 96 h treatment
Protocol: Cell-Based Proliferation Assay for Determination of GI50 Values
Human colon cancer cell lines (Colo205 and HCT116), human breast cancer cell lines (MDA-MB435 and MDA-MB231), and human lung cancer cell line (A549) were obtained from ATCC. Colo205 cells were cultivated in RPMI 1640 containing 2 mM L-Glutamine, 5% FBS, 1.0 mM Na Pyruvate. A549 and MDA-MB231 were cultivated in RPMI 1640 containing 2 mM L-glutamine, 5% FBS. MDA-MB435 cells were cultivated in DMEM containing 2 mM L-Glutamine, 5% FBS. HCT116 cells were cultivated in IMEM containing 2 mM L-Glutamine, 5% FBS. A549 and Colo205 cells were seeded in 96-wells plate at 2000 and 5000 cells per well respectively. MDA-MB435, HCT116, MDA-MB231 cells were seeded in 96-wells plate at 6000 cells per well. The plates were incubated at 37° C., 5% CO2, for 24 h. Cells were treated with compounds at various concentration for 96 h. Cell growth was then monitored using cyquant cell proliferation assay (Invitrogen Pte Ltd). Dose response curves were plotted to determine GI50 values for the compounds using XL-fit.

[2] = molecular target: HDAC8 enzyme (recombinant GST-HDAC8) (Homo sapiens (Human), UniProt Q9BY41); test: In vitro HDAC assay (BIOMOL fluorescent-based), HDAC8 enzyme; assay type: biochemical
Chain of HDAC8 enzyme (recombinant GST-HDAC8) (Q9BY41 whole entry): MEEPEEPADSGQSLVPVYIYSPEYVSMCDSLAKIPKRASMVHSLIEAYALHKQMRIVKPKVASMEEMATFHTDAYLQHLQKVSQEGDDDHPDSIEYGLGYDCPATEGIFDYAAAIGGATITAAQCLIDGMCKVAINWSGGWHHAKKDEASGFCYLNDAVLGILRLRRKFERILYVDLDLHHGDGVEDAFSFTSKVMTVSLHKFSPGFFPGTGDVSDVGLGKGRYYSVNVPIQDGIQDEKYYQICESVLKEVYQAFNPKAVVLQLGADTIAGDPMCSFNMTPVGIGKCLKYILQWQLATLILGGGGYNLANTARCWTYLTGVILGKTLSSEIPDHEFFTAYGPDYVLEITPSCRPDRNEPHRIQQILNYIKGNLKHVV
Protocol: (§1) Expression of GST-HDAC1 or HTGST-HDAC8 was done by infecting SF9 cells (Invitrogen Pte Ltd) with pDEST20-HDAC1 or pFASTBAC-GST-HDAC8 baculovirus at MOI=1 for 48 h. Soluble cell lysate was incubated with pre-equilibrated Glutathione Sepharose 4B beads (Amersham) at 4° C. for 2 h. The beads were washed with PBS buffer for 3 times. The GST-HDAC1 protein or GST-HDAC8 protein was eluted by elution buffer containing 50 mM Tris, pH8.0, 150 mM NaCl, 1% Triton X-100 and 10 mM or 20 mM reduced Glutathione. The purified GST-HDAC1 protein or purified GST-HDAC8 protein was dialyzed with HDAC storage buffer containing 10 mM Tris, pH7.5, 100 mM NaCl and 3 mM MgCl2. 20% Glycerol was added to purified GST-HDAC1 protein or purified GST-HDAC8 before storage at −80° C.

[3] = molecular target: HDAC1 enzyme (recombinant GST-HDAC1) (Homo sapiens (Human), UniProt Q13547); test: In vitro HDAC assay (BIOMOL fluorescent-based), HDAC1 enzyme; assay type: biochemical
Chain of HDAC1 enzyme (recombinant GST-HDAC1) (Q13547 whole entry): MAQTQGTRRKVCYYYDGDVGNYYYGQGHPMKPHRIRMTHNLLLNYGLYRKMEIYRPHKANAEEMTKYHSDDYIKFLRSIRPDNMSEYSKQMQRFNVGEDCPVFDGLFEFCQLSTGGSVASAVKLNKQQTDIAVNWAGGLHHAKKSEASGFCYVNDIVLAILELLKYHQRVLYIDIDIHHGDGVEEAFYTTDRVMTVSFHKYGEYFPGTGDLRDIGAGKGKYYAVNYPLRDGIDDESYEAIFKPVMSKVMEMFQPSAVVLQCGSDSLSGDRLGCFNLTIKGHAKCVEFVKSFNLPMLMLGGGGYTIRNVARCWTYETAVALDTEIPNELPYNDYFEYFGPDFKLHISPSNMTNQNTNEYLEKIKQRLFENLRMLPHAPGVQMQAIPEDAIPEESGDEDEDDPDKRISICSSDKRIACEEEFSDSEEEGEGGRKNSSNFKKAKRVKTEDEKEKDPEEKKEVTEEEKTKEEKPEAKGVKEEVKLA
Protocol: as §1

| GI50 (Colo205 cells; COLO 205) [nM] | GI50 (MDA-MB435 cells) [nM] | SMILES | also measured |
| --- | --- | --- | --- |
| 4470 | 5920 | Cn1c(CNC(=O)Cc2ccccc2)nc2cc(/C=C/C(=O)NO)ccc21 [Compound 54] |  |
| > 100000 | > 100000 | Cn1c(CNC(=O)c2ccncc2)nc2cc(/C=C/C(=O)NO)ccc21 [Compound 55] | IC50 [3]: 137 nM |
| > 100000 | > 100000 | O=C(/C=C/c1ccc2c(c1)nc(CCc1ccccc1)n2CCCn1ccnc1)NO [Compound 56, N-Hydroxy-3-[1-(3-imidazol-1-yl-propyl)-2-phenethyl-1H-benzimidazol-5-yl]-acrylamide] |  |
| 2720 | 3690 | Cn1c(CCc2ccccc2)nc2ccc(/C=C/C(=O)NO)cc21 [Compound 59] | IC50 [3]: 382 nM |
| 2690 | 3050 | Cn1c(CN(Cc2ccccc2)Cc2ccccc2)nc2cc(/C=C/C(=O)NO)ccc21 [Compound 61] |  |
| 11600 | 19800 | COc1ccc(CNCc2nc3cc(/C=C/C(=O)NO)ccc3n2C)cc1 [Compound 62] |  |
| 730 |  | CCn1c(CN(Cc2ccccc2)Cc2ccccc2)nc2cc(/C=C/C(=O)NO)ccc21 [Compound 68] |  |
| 7160 |  | Cn1c(CNC(=O)Cc2ccc(F)cc2)nc2cc(/C=C/C(=O)NO)ccc21 [Compound 69] |  |
| 2900 |  | CCn1c(CCNC(=O)Cc2ccccc2)nc2cc(/C=C/C(=O)NO)ccc21 [Compound 70] |  |
| 7090 |  | CCn1c(CCNS(=O)(=O)c2ccccc2)nc2cc(/C=C/C(=O)NO)ccc21 [Compound 71] |  |
| 6670 |  | CCn1c(CCNC(=O)COc2ccccc2)nc2cc(/C=C/C(=O)NO)ccc21 [Compound 73] |  |
| 2880 |  | CC(C)(C)Cn1c(CCc2ccccc2)nc2cc(/C=C/C(=O)NO)ccc21 [Compound 75] | IC50 [3]: 290 nM |
| 250 |  | CN(C)CC(C)(C)Cn1c(CCCc2ccccc2)nc2cc(/C=C/C(=O)NO)ccc21 [Compound 83] |  |
| 170 |  | CN(C)CC(C)(C)Cn1c(CCc2ccc(F)cc2)nc2cc(/C=C/C(=O)NO)ccc21 [Compound 84] |  |
| 1650 |  | O=C(/C=C/c1ccc2[nH]c(CCc3ccc(F)cc3)nc2c1)NO [Compound 85] |  |
| 47700 |  | O=C(/C=C/c1ccc2[nH]c(CCc3cccnc3)nc2c1)NO [Compound 87] |  |

More lines, now with the values behind:

| SMILES | GI50 (Colo205 cells; COLO 205) [nM] | GI50 (MDA-MB435 cells) [nM] | also measured |
| --- | --- | --- | --- |
| COc1cc(Cn2c(CCc3ccccc3)nc3cc(/C=C/C(=O)NO)ccc32)cc(OC)c1OC [Compound 2, N-Hydroxy-3-[1-(3,4,5-trimethoxybenzyl)-2-(2-phenyl-ethyl)-1H-benzimidazol-5-yl]-acrylamide] |  |  | EC50 [1]: 1700 nM; IC50 (HDAC3): 64 nM |
| COc1ccc(-c2nc3cc(/C=C/C(=O)NO)ccc3n2CC(O)CO)cc1 (centres unmarked) [Compound 6, N-Hydroxy-3-[1-(2,3-hydroxy-propyl)-2-(4-methoxy-phenyl)-1H-benzimidazole-5-yl]-acrylamide] | > 100000 |  |  |
| COc1cc(-c2nc3cc(/C=C/C(=O)NO)ccc3n2CC(O)CO)ccc1OCc1ccccc1 (centres unmarked) [Compound 7, N-Hydroxy-3-[2-(4-benzyloxy-3-methoxy-phenyl)-1-(2,3-hydroxy-propyl)-1H-benzimidazole-5-yl]-acrylamide] | > 100000 |  |  |
| O=C(/C=C/c1ccc2c(c1)nc(CCc1ccccc1)n2CC(O)CO)NO (centres unmarked) [Compound 8] | 41400 | 58400 |  |
| O=C(/C=C/c1ccc2c(c1)nc(-c1ccccn1)n2CC(O)CO)NO (centres unmarked) [Compound 9, N-Hydroxy-3-[1-(2,3-hydroxy-propyl)-2-(2-pyridyl)-1H-benzimidazol-5-yl]-acrylamide] | > 100000 | > 100000 |  |
| O=C(/C=C/c1ccc2c(c1)nc(-c1ccccn1)n2CCCO)NO [Compound 13, N-Hydroxy-3-[1-(3-hydroxy-propyl)-2-(2-pyridyl)-1H-benzimidazol-5-yl]-acrylamide] | 12300 | 14000 |  |
| COCCCn1c(CCc2ccccc2)nc2cc(/C=C/C(=O)NO)ccc21 [Compound 15] | 1990 | 4070 |  |
| O=C(/C=C/c1ccc2c(c1)nc(CCc1ccccc1)n2Cc1ccccn1)NO [Compound 16, N-Hydroxy-3-(2-phenethyl-1-(pyridin-2-yl)methyl-1H-benzimidazol-5-yl)-acrylamide] | 940 | 980 |  |
| CN(C)CC(C)(C)Cn1c(CCc2ccccc2)nc2cc(/C=C/C(=O)NO)ccc21 [Compound 17, N-Hydroxy-3-[1-(3-Dimethylamino-2,2-dimethyl-proppyl)-2-phenethyl-1H-benzimidazol-5-yl]-acrylamide] |  |  | EC50 [1]: 1100 nM; IC50 (HDAC3): 29 nM |
| O=C(/C=C/c1ccc2c(c1)nc(CCc1ccccc1)n2CCc1ccccn1)NO [Compound 18] | 4690 | 6160 |  |
| O=C(/C=C/c1ccc2c(c1)nc(COCc1ccccc1)n2CCCO)NO [Compound 19] | 4100 | 3970 |  |
| CC(C)Cc1nc2cc(/C=C/C(=O)NO)ccc2n1CCc1ccccn1 [Compound 22] | 13500 | 13400 |  |
| O=C(/C=C/c1ccc2c(c1)nc(C1CCCCC1)n2CCCO)NO [Compound 24, N-Hydroxy-[2-cyclohexyl-1-(3-hydroxy-propyl)-1H-benzimidazol-5-yl]-acrylamide] | 30700 | 35000 |  |
| CC(C)Cc1nc2cc(/C=C/C(=O)NO)ccc2n1CCc1ccccc1 [Compound 25, N-Hydroxy-3-(2-isobutyl-1-phenethyl-1H-benzimidazol-5-yl]-acrylamide] | 8100 | 6820 |  |
| O=C(/C=C/c1ccc2c(c1)nc(COCc1ccccc1)n2CCc1cccnc1)NO [Compound 28] | 2530 | 5150 |  |
| O=C(/C=C/c1ccc2c(c1)nc(CCc1ccccc1)n2CCCN1CCOCC1)NO [Compound 31, N-Hydroxy-3-[1-(3-morpholin-4-propyl]-2-phenethyl-1H-benzimidazol-5-yl}-acrylamide] | 1870 | 4060 |  |
| O=C(O)CCn1c(CCc2ccccc2)nc2cc(/C=C/C(=O)NO)ccc21 [Compound 32, 3-[5-(2-Hydrocarbamoyl-vinyl)-2-phenethyl-benzimidazol-1-yl]-propionic acid] |  |  | IC50 [2]: 1890 nM |
| CCCn1c(CCc2ccccc2)nc2cc(/C=C/C(=O)NO)ccc21 [Compound 36, N-Hydroxy-3-(2-phenethyl-1-propyl-1H-benzimidazol-5-yl}-acrylamide] | 2290 | 2170 |  |
| O=C(NO)c1ccc2c(c1)nc(CCc1ccccc1)n2CCCO [Compound 40, 1-(3-Hydroxy-propyl)-2-phenethyl-1H-benzimidazol-5-carboxylic acid hydroxyamide] | 25600 | 31000 |  |
| CC(Cc1nc2cc(/C=C/C(=O)NO)ccc2n1CCc1cccnc1)c1ccccc1 (centres unmarked) [Compound 41] | 1650 | 1910 |  |
| O=C(/C=C/c1ccc2c(c1)nc(CCc1ccccc1)n2CCN1CCOCC1)NO [Compound 44] | 2820 | 3650 | IC50 [3]: 268 nM; IC50 [2]: 345 nM |
| COc1cc(Cn2c(CCc3ccccc3)nc3cc(CCC(=O)NO)ccc32)cc(OC)c1OC [Compound 45] | 2410 | 1900 |  |
| Cc1nc2cc(/C=C/C(=O)NO)ccc2n1C [Compound 53] |  |  | IC50 [3]: 1850 nM |
| O=C(/C=C/c1ccc2nc(CCc3ccccc3)n(Cc3ccccc3)c2c1)NO [Compound 58] |  |  | IC50 [3]: 1140 nM |
| CCn1c(CNCc2ccccc2)nc2cc(/C=C/C(=O)NO)ccc21 [Compound 64, N-Hydroxy-3-[2-(benzylamino-methyl)-ethyl-1H-benzimidazol-5-yl]-acrylamide] | 1700 |  |  |
| O=C(/C=C/c1ccc2c(c1)nc(CCc1ccccc1)n2CCN1CCCCC1)NO [Compound 67, N-Hydroxy-3-[2-phenethyl-1-(piperidin-1-yl-ethyl)-1H-benzimidazol-5-yl]-acrylamide] |  |  | IC50 (HDAC3): 56 nM |
| O=C(/C=C/c1ccc2c(c1)nc(CCc1ccccc1)n2CCN1CCCC1)NO [Compound 72, N-Hydroxy-3-[2-phenyethyl-1-(2-pyrrolidin-1-yl-ethyl)-1H-benzimidazol-5-yl]-acrylamide] | 180 |  |  |
| CN(C)CC(C)(C)Cn1c(SCc2ccccc2)nc2cc(/C=C/C(=O)NO)ccc21 [Compound 89, N-Hydroxy-3-[2-benzylsulfanyl-1-(3-dimethylamino-2-2,dimethyl-propyl)-1H-benzimidazol-5-yl]-acrylamide] |  |  | GI50 (Colo205 cells; COLO 205, 96 h): 120 nM |
